The assay concerns the target T1, L-type amino acid transporter 1 (LAT-1/SLC7A5) (Homo sapiens, UniProt Q01650).
T1 construct: with CD98 (4F2hc; SLC3A2, also printed as SLC2A3)
As to the kind of experiment: inhibition of [[…]6, […]]-L-leucine uptake in hCMEC/D3 cells, UPLC-MS/MS. The format is cell-based.

T1 sequence (Q01650 whole entry): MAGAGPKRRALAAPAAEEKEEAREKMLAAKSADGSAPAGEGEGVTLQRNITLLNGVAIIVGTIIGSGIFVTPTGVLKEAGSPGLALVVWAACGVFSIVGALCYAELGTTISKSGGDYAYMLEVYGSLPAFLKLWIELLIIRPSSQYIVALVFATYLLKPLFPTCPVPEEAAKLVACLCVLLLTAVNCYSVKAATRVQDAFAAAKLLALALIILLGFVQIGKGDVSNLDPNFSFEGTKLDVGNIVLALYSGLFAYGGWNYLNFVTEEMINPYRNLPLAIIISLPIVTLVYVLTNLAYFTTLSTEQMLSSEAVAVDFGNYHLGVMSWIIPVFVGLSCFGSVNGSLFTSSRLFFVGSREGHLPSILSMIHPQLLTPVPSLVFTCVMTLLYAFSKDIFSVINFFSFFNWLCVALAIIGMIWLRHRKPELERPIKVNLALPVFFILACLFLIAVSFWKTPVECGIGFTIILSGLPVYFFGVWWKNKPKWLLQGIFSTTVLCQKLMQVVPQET
T1 sequence (P08195 103-630 partner): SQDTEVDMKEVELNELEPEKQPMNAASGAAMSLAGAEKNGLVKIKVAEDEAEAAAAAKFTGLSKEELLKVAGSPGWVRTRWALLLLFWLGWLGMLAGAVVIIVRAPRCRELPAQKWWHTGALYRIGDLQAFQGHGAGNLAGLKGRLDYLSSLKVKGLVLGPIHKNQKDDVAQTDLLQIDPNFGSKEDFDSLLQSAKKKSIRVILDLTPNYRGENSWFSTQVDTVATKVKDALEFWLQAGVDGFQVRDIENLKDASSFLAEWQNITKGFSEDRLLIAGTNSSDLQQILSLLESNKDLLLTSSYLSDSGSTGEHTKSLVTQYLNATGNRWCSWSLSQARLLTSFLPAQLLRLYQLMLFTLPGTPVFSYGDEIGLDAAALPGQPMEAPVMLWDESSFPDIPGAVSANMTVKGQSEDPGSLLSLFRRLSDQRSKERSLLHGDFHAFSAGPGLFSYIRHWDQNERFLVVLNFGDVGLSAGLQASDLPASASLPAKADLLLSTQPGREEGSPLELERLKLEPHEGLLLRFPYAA

One may read the IC50 as the point on the concentration scale where inhibition reaches its midpoint. Lower therefore signals greater potency. `Nc1cc(COc2c(Cl)cc(C[C@H](N)C(=O)O)cc2Cl)c2oc(-c3ccccc3)nc2c1` [JPH203] displayed a 50% inhibitory concentration (IC50) of 0.103 ± 0.015 µM.

Compound `NC1(C(=O)O)CC2CCC1C2` (centres unmarked) [BCH, 2-aminobicyclo-(2,2,1)-heptane-2-carboxylic acid] came in with an IC50 of 91 ± 39 µM.

These data come from PMC8998838, “Functional Characterization of the Solute Carrier LAT-1 (SLC7A5/SLC2A3) in Human Brain Capillary Endothelial Cells with Rapid UPLC-MS/MS Quantification of Intracellular Isotopically Labelled L-Leucine” (International Journal of Molecular Sciences, 2022).
